Assay results: patent US20230135894A1, “MK2 DEGRADERS AND USES THEREOF” (Kymera Therapeutics, Inc., priority 2021, published 2023)

What was measured:
[1] = molecular target: T1, MK2 (Homo sapiens, UniProt P49137); test: MK2 degradation in human THP-1 monocytic cells (MSD, 24 h); format: cell-based; set-up: endogenous in cells; key to MK2 MSD THP-1 degradation 24 h GMean External Abs DC50: A (<0.001 μM); B (0.001-0.01 μM); C (0.01-0.1 μM); D (>0.1 μM); —: “-”=not tested or inactive; conditions: for Dmax: THP-1, THP-1 cells; for DC50: read-out: MK2 MSD THP-1 degradation 24 h GMean External Abs DC50
How it was run: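 Readout: residual MK2 protein in THP-1 lysates, measured by MSD electrochemiluminescence sandwich assay after 24 h compound exposure (≤10-point serial dilutions, 0.1% DMSO, 37 °C). Curves normalised between lysis-buffer and DMSO-cell signals; DC50 by 4-parameter logistic fit.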

[2] = molecular target: T1, MK2; test: MK2 degradation in human SW1353 cells (MSD, 24 h); format: cell-based; set-up: endogenous in cells; host or cells: SW-1353 (ATCC HTB-94); key to MK2 MSD SW1353 degradation 24 h GMean External Abs DC50: A (<0.001 μM); B (0.001-0.01 μM); C (0.01-0.1 μM); D (>0.1 μM); —: “-”=not tested or inactive; conditions: for Dmax: read-out: MK2 MSD SW 1353 24 h Dmax %; for DC50: read-out: MK2 MSD SW1353 degradation 24 h GMean External Abs DC50
How it was run: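 DC50 derived by 4-parameter logistic fit, with DMSO-treated signal as top and lysis-buffer signal as bottom. Remaining MK2 was measured by MSD electrochemiluminescent sandwich assay in RIPA lysates of human SW1353 cells exposed for 24 h at 37 °C to serially diluted compound in 0.1% DMSO.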

T1 sequence (P49137 whole entry): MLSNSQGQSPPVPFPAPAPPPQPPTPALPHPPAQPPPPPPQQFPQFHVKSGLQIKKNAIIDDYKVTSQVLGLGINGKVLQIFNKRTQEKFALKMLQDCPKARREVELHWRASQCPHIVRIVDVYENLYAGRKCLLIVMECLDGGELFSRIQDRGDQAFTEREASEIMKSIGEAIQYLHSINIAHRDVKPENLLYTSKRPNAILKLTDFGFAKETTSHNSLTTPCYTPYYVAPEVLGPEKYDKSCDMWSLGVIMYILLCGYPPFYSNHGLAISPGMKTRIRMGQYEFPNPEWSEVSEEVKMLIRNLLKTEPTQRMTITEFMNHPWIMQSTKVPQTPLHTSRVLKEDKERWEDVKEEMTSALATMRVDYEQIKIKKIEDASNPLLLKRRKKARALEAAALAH

Dmax [1] [%] | MK2 MSD THP-1 degradation 24 h GMean External Abs DC50 ([1]; THP-1 cells) | Dmax [2] [%] | DC50 [2] [nM] | DC50 ([1]; THP-1 cells) [nM] | MK2 MSD SW1353 degradation 24 h GMean External Abs DC50 [2] | SMILES
< 50 | — | > 75 | 1 to 10 |  |  | Cc1nc(N2CCN(CCCc3ccc4c(c3)n(C)c(=O)n4C3CCC(=O)NC3=O)CC2)ccc1-c1ccc2c(ccc3sc4c(c32)NC[C@@H](C)NC4=O)n1 (some centres unmarked) [Compound I-259]
> 75 |  | > 75 | < 1 | < 1 |  | COc1cc(-c2ccc3c(ccc4sc5c(c43)NC[C@@H](C)NC5=O)n2)cc(N2CCN(CC3CCN(c4ccc5c(c4)n(C)c(=O)n5C4CCC(=O)NC4=O)CC3)CC2)c1 (some centres unmarked) [Compound I-239]
> 75 |  | > 75 | < 1 | < 1 |  | C[C@@H]1CNc2c(sc3ccc4nc(-c5ccc(N6CCN(C[C@H]7CCN(c8ccc9c(c8)n(C)c(=O)n9C8CCC(=O)NC8=O)C7)CC6)cc5)ccc4c23)C(=O)N1 (some centres unmarked) [Compound I-195]
> 75 |  | > 75 | < 1 | < 1 |  | C[C@@H]1CNc2c(sc3ccc4nc(-c5ccc(N6CCC(CN7CCC(c8cccc9c8n(C)c(=O)n9C8CCC(=O)NC8=O)CC7)CC6)cc5F)ccc4c23)C(=O)N1 (some centres unmarked) [Compound I-299]
> 75 |  | > 75 | < 1 | < 1 |  | C[C@@H]1CNc2c(sc3ccc4nc(-c5ccc(N6CCN(CCCc7ccc8c(c7)n(C)c(=O)n8C7CCC(=O)NC7=O)CC6)cc5F)ccc4c23)C(=O)N1 (some centres unmarked) [Compound I-252]
> 75 |  | > 75 | 1 to 10 | 1 to 10 |  | C[C@@H]1CN(C)c2c(sc3ccc4nc(-c5ccc(N6CCN(CCCc7ccc8c(c7)n(C)c(=O)n8C7CCC(=O)NC7=O)CC6)cc5)ccc4c23)C(=O)N1 (some centres unmarked) [Compound I-266]
> 75 |  | > 75 | 1 to 10 | 1 to 10 |  | C[C@@H]1CNc2c(sc3ccc4nc(-c5ccc(CNC(=O)CCCCCCCc6ccc7c(c6)n(C)c(=O)n7C6CCC(=O)NC6=O)cc5)ccc4c23)C(=O)N1 (some centres unmarked) [Compound I-87]
> 75 |  | > 75 | < 1 | < 1 |  | C[C@@H]1CNc2c(sc3ccc4nc(-c5cncc(N6CCN(CC7CCN(c8cccc9c8n(C)c(=O)n9C8CCC(=O)NC8=O)CC7)CC6)c5)ccc4c23)C(=O)N1 (some centres unmarked) [Compound I-160]
> 75 |  | > 75 | < 1 | < 1 |  | C[C@@H]1CNc2c(sc3ccc4nc(-c5ccc(N6CCC(CCN7CCN(c8ccc9c(c8)n(C)c(=O)n9C8CCC(=O)NC8=O)CC7)CC6)cc5)ccc4c23)C(=O)N1 (some centres unmarked) [Compound I-131]
> 75 |  | > 75 | < 1 | < 1 |  | C[C@@H]1CNc2c(sc3ccc4nc(-c5ccc(N6CCC(CN7CCN(c8ccc9c(c8)n(C)c(=O)n9C8CCC(=O)NC8=O)CC7)CC6)cc5F)ccc4c23)C(=O)N1 (some centres unmarked) [Compound I-306]
> 75 |  | > 75 | 1 to 10 | < 1 |  | C[C@@H]1CNc2c(sc3ccc4nc(-c5cccc(N6CCN(CCCCCc7cccc8c7n(C)c(=O)n8C7CCC(=O)NC7=O)CC6)c5)ccc4c23)C(=O)N1 (some centres unmarked) [Compound I-94]
> 75 |  | > 75 | 1 to 10 | 1 to 10 |  | C[C@@H]1CN(C)c2c(sc3ccc4nc(-c5ccc(N6CCC(CN7CCN(c8ccc9c(c8)n(C)c(=O)n9C8CCC(=O)NC8=O)CC7)CC6)cc5)ccc4c23)C(=O)N1 (some centres unmarked) [Compound I-253]
> 75 |  | > 75 | < 1 | < 1 |  | C[C@@H]1CNc2c(sc3ccc4nc(-c5cncc(C6CCN(CC7CCN(c8ccc9c(c8)n(C)c(=O)n9C8CCC(=O)NC8=O)CC7)CC6)c5)ccc4c23)C(=O)N1 (some centres unmarked) [Compound I-165]

The remaining lines, values behind:

SMILES | Dmax [1] [%] | MK2 MSD THP-1 degradation 24 h GMean External Abs DC50 ([1]; THP-1 cells) | Dmax [2] [%] | DC50 [2] [nM] | DC50 ([1]; THP-1 cells) [nM] | MK2 MSD SW1353 degradation 24 h GMean External Abs DC50 [2]
CN1CCc2[nH]c(-c3ccnc(-c4ccc(N5CCN(CC6CCN(c7ccc8c(c7)n(C)c(=O)n8C7CCC(=O)NC7=O)CC6)CC5)cc4)c3)cc2C1=O (centres unmarked) [Compound I-450] | < 50 |  | < 50 | > 100 | > 100 | 
Cn1c(=O)n(C2CCC(=O)NC2=O)c2ccc(N3CC(CN4CCN(c5ccc(-c6cc(-c7cc8c([nH]7)C7(CCCC7)CNC8=O)ccn6)cc5)CC4)C3)cc21 (centres unmarked) [Compound I-415] | > 75 |  | > 75 | < 1 | < 1 | 
C[C@@H]1CNc2c(sc3ccc4nc(-c5ccc(N6CCN(CCCCOc7ccc(N8CCC(=O)NC8=O)cc7)CC6)nc5)ccc4c23)C(=O)N1 [Compound I-437] | > 75 |  | > 75 | 1 to 10 | 1 to 10 | 
Cn1c(=O)n(C2CCC(=O)NC2=O)c2cccc(CCCN3CCN(c4ccc(-c5cc(-c6cc7c([nH]6)C6(CC6)CNC7=O)ccn5)cc4)CC3)c21 (centres unmarked) [Compound I-241] | 50 to 75 |  | > 75 | 1 to 10 | 1 to 10 | 
Cn1c(=O)n(C2CCC(=O)NC2=O)c2cccc(C3CCN(CC4CCN(c5ccc(-c6cc(-c7cc8c([nH]7)CCNC8=O)ccn6)c(F)c5)CC4)CC3)c21 (centres unmarked) [Compound I-137] | > 75 |  | > 75 | < 1 | 1 to 10 | 
C[C@@H]1CNc2c(sc3ccc4nc(-c5cccc(N6CCC(CN7CCC(c8cccc9c8n(C)c(=O)n9C8CCC(=O)NC8=O)CC7)CC6)c5)ccc4c23)C(=O)N1 (some centres unmarked) [Compound I-96] | > 75 |  | > 75 | 1 to 10 | < 1 | 
C[C@@H]1CNc2c(sc3ccc4nc(-c5ccc(N6CCC(CN7CCN(c8cccc9c(N%10CCC(=O)NC%10=O)cncc89)CC7)CC6)cc5)ccc4c23)C(=O)N1 [Compound I-317] | > 75 |  | > 75 | 1 to 10 | < 1 | 
Cn1c(=O)n(C2CCC(=O)NC2=O)c2cccc(N3CCC(CN4CCN(c5ccc(-c6cc(-c7cc8c([nH]7)CCNC8=O)ccn6)cc5)CC4)CC3)c21 (centres unmarked) [Compound I-120] | > 75 |  | > 75 | 1 to 10 | 1 to 10 | 
Cn1c(=O)n(C2CCC(=O)NC2=O)c2ccc(N3CCC(CN4CCN(c5ccc(-c6cc(-c7cc8c([nH]7)CCNC8=O)ccn6)cn5)CC4)CC3)cc21 (centres unmarked) [Compound I-141] | > 75 |  | > 75 | < 1 | < 1 | 
Cn1c(=O)n(C2CCC(=O)NC2=O)c2ccc(N3CC(CN4CCN(c5ccc(-c6nccc(-c7cc8c([nH]7)C7(CCCC7)CNC8=O)n6)cc5)CC4)C3)cc21 (centres unmarked) [Compound I-405] | > 75 |  | > 75 | < 1 | < 1 | 
C[C@@H]1Cc2oc(-c3ccnc(-c4ccc(N5CCN(CC6CN(c7ccc8c(c7)n(C)c(=O)n8C7CCC(=O)NC7=O)C6)CC5)nc4)c3)cc2C(=O)N1 (some centres unmarked) [Compound I-417] | > 75 |  | > 75 | < 1 | 1 to 10 | 
Cn1c(=O)n(C2CCC(=O)NC2=O)c2ccc(N3CCC(CN4CCN(c5ccc6oc(-c7cc(Nc8ccnc(N)n8)cc8cn[nH]c78)cc6c5)CC4)CC3)cc21 (centres unmarked) [Compound I-429] | < 50 |  | < 50 | > 100 | > 100 | 
Cn1c(=O)n(C2CCC(=O)NC2=O)c2cccc(CCN3CCN(c4ccc(-c5cc(-c6cc7c([nH]6)C6(CC6)CNC7=O)ccn5)cc4)CC3)c21 (centres unmarked) [Compound I-203] | > 75 |  | > 75 |  | 1 to 10 | —
